Laboratory results published in patent US11319299B2, “Substituted carboxamides as inhibitors of WDR5 protein-protein binding” (PROPELLON THERAPEUTICS INC., priority 2016, dated 2022).

biological target: WDR5 (Homo sapiens (Human), UniProt P61964); assay: Surface Plasmon Resonance (SPR) assay, KD and residence time; assay type: binding; settings: surface plasmon resonance (SPR) assay; read-out: WDR5 binding affinity (KD)

| Structure (SMILES) | Kd |
| --- | --- |
| C[C@@H]1CN(c2cc(F)c(-c3cnc(N4CCOCC4)nc3)cc2NC(=O)c2c(O)cnc3ccccc23)C[C@H](C)N1C [Example 282, N-[4-fluoro-5-(2-morpholin-4-ylpyrimidin-5-yl)-2-[(3R,5S)-3,4,5-trimethylpiperazin-1-yl]phenyl]-3-hydroxyquinoline-4-carboxamide] | 1.98 nM |
| CN(C)[C@@H]1CCN(c2cc(F)c(-c3cnc(N4CCOCC4)nc3)cc2NC(=O)c2cn(C)nc2C(F)(F)F)C1 [Example 283, N-[4-fluoro-5-(2-morpholin-4-ylpyrimidin-5-yl)-2-[(3R)-3-(dimethylamino)pyrrolidin-1-yl]phenyl]-1-methyl-3-(trifluoromethyl)pyrazole-4-carboxamide] | 14.8 nM |
| C[C@@H]1CN(c2cc(F)c(C3=CCN(C(=O)N(C)C)CC3)cc2NC(=O)c2c[nH]c(=O)cc2C(F)(F)F)C[C@H](C)N1C [Example 285, N-[5-[1-(dimethylcarbamoyl)-3,6-dihydro-2H-pyridin-4-yl]-4-fluoro-2-[(3R,5S)-3,4,5-trimethylpiperazin-1-yl]phenyl]-6-oxo-4-(trifluoromethyl)-1H-pyridine-3-carboxamide] | 1.01 nM |
| C[C@@H]1CN(c2cc(F)c(C3=CCN(C(=O)N4CCCC4)CC3)cc2NC(=O)c2c[nH]c(=O)cc2C(F)(F)F)C[C@H](C)N1C [Example 286, N-[4-fluoro-5-[1-(pyrrolidine-1-carbonyl)-3,6-dihydro-2H-pyridin-4-yl]-2-[(3R,5S)-3,4,5-trimethylpiperazin-1-yl]phenyl]-6-oxo-4-(trifluoromethyl)-1H-pyridine-3-carboxamide] | 1.18 nM |
| C[C@@H]1CN(c2cc(F)c(C3=CCN(C(=O)N4CCN(C)CC4)CC3)cc2NC(=O)c2c[nH]c(=O)cc2C(F)(F)F)C[C@H](C)N1C [Example 287, N-[4-fluoro-5-[1-(4-methylpiperazine-1-carbonyl)-3,6-dihydro-2H-pyridin-4-yl]-2-[(3R,5S)-3,4,5-trimethylpiperazin-1-yl]phenyl]-6-oxo-4-(trifluoromethyl)-1H-pyridine-3-carboxamide] | 1.39 nM |
| C[C@@H]1CN(c2cc(F)c(C3=CCN(C(=O)Oc4ccccc4)CC3)cc2NC(=O)c2c[nH]c(=O)cc2C(F)(F)F)C[C@H](C)N1C [Example 288, phenyl 4-[2-fluoro-5-[[6-oxo-4-(trifluoromethyl)-1H-pyridine-3-carbonyl]amino]-4-[(3R,5S)-3,4,5-trimethylpiperazin-1-yl]phenyl]-3,6-dihydro-2H-pyridine-1-carboxylate] | 1.11 nM |
| C[C@@H]1CC(N2CC=C(c3cc(NC(=O)c4c[nH]c(=O)cc4C(F)(F)F)c(N4C[C@@H](C)N(C)[C@@H](C)C4)cc3F)CC2)C[C@H](C)O1 (stereo partly drawn) [Example 289, N-[4-fluoro-5-[1-[(2R,6S)-2,6-dimethyloxan-4-yl]-3,6-dihydro-2H-pyridin-4-yl]-2-[(3S,5R)-3,4,5-trimethylpiperazin-1-yl]phenyl]-6-oxo-4-(trifluoromethyl)-1H-pyridine-3-carboxamide] | 3.74 nM |
| C[C@@H]1CN(c2cc(F)c(-c3cnc(N4CCOCC4)nc3)cc2NC(=O)c2ccc(O)cc2C(F)(F)F)C[C@H](C)N1C [Example 290, N-[4-fluoro-5-(2-morpholin-4-ylpyrimidin-5-yl)-2-[(3R,5S)-3,4,5-trimethylpiperazin-1-yl]phenyl]-4-hydroxy-2-(trifluoromethyl)benzamide] | 8.9 nM |
| C[C@@H]1CN(c2cc(F)c(-c3cnc(N4CCOCC4)nc3)cc2NC(=O)c2cc(O)cc(F)c2F)C[C@H](C)N1C [Example 291, 2,3-difluoro-N-[4-fluoro-5-(2-morpholin-4-ylpyrimidin-5-yl)-2-[(3R,5S)-3,4,5-trimethylpiperazin-1-yl]phenyl]-5-hydroxybenzamide] | 4.21 nM |
| C[C@@H]1CN(c2cc(F)c(-c3ccnc(OCC4CCC4)c3)cc2NC(=O)c2c[nH]c(=O)cc2C(F)(F)F)C[C@H](C)N1C [Example 292, N-[5-[2-(cyclobutylmethoxy)pyridin-4-yl]-4-fluoro-2-[(3R,5S)-3,4,5-trimethylpiperazin-1-yl]phenyl]-6-oxo-4-(trifluoromethyl)-1H-pyridine-3-carboxamide] | 4.32 nM |
| C[C@@H]1CN(c2cc(F)c(-c3ccnc(OCC(C)(C)C)c3)cc2NC(=O)c2c[nH]c(=O)cc2C(F)(F)F)C[C@H](C)N1C [Example 293, N-[5-[2-(2,2-dimethylpropoxy)pyridin-4-yl]-4-fluoro-2-[(3R,5S)-3,4,5-trimethylpiperazin-1-yl]phenyl]-6-oxo-4-(trifluoromethyl)-1H-pyridine-3-carboxamide] | 3 nM |
| CCN(CC)c1ncc(-c2cc(NC(=O)c3c[nH]c(=O)cc3C(F)(F)F)c(N3C[C@@H](C)N(C)[C@@H](C)C3)cc2F)cn1 [Example 294, N-[5-[2-(diethylamino)pyrimidin-5-yl]-4-fluoro-2-[(3R,5S)-3,4,5-trimethylpiperazin-1-yl]phenyl]-6-oxo-4-(trifluoromethyl)-1H-pyridine-3-carboxamide] | 2.24 nM |
| C[C@@H]1CN(c2cc(F)c(-c3cnc(N4CCOCC4)nc3)cc2NC(=O)c2cccc(F)c2C(F)(F)F)C[C@H](C)N1C [Example 295, 3-fluoro-N-[4-fluoro-5-(2-morpholin-4-ylpyrimidin-5-yl)-2-[(3R,5S)-3,4,5-trimethylpiperazin-1-yl]phenyl]-2-(trifluoromethyl)benzamide] | 11.1 nM |
| C[C@@H]1CN(c2cc(F)c(-c3cnc(N4CCOCC4)nc3)cc2NC(=O)c2cc(F)c(F)c(F)c2)C[C@H](C)N1C [Example 296, 3,4,5-trifluoro-N-[4-fluoro-5-(2-morpholin-4-ylpyrimidin-5-yl)-2-[(3R,5S)-3,4,5-trimethylpiperazin-1-yl]phenyl]benzamide] | 21.2 nM |
| C[C@@H]1CN(c2cc(F)c(-c3cnc(N4CCOCC4)nc3)cc2NC(=O)c2c(F)cccc2C(F)(F)F)C[C@H](C)N1C [Example 297, 2-fluoro-N-[4-fluoro-5-(2-morpholin-4-ylpyrimidin-5-yl)-2-[(3R,5S)-3,4,5-trimethylpiperazin-1-yl]phenyl]-6-(trifluoromethyl)benzamide] | 22.9 nM |
| CCCN(C)C1CCN(c2cc(F)c(-c3cnc(N4CCOCC4)nc3)cc2NC(=O)c2c[nH]c(=O)cc2C(F)(F)F)C1 (stereo not shown) [Example 303, N-[4-fluoro-2-[3-[methyl(propyl)amino]pyrrolidin-1-yl]-5-(2-morpholin-4-ylpyrimidin-5-yl)phenyl]-6-oxo-4-(trifluoromethyl)-1H-pyridine-3-carboxamide] | 1.68 nM |
| C[C@@H]1CN(c2cc(F)c(C3=CCN(C(=O)CN(C)C)CC3)cc2NC(=O)c2c[nH]c(=O)cc2C(F)(F)F)C[C@H](C)N1C [Example 305, N-[5-[1-[2-(dimethylamino)acetyl]-3,6-dihydro-2H-pyridin-4-yl]-4-fluoro-2-[(3R,5S)-3,4,5-trimethylpiperazin-1-yl]phenyl]-6-oxo-4-(trifluoromethyl)-1H-pyridine-3-carboxamide] | 2.61 nM |
| C[C@@H]1CN(c2cc(F)c(-c3cnc(N4CCN(C(=O)CCC(=O)O)CC4)nc3)cc2NC(=O)c2c[nH]c(=O)cc2C(F)(F)F)C[C@H](C)N1C [Example 306, 4-[4-[5-[2-fluoro-5-[[6-oxo-4-(trifluoromethyl)-1H-pyridine-3-carbonyl]amino]-4-[(3R,5S)-3,4,5-trimethylpiperazin-1-yl]phenyl]pyrimidin-2-yl]piperazin-1-yl]-4-oxobutanoic acid] | 0.789 nM |
| C[C@@H]1CN(c2cc(F)c(C3=CCN(C(=O)OC(C)(C)C)CC3)cc2NC(=O)c2cn(C)c(=O)cc2C(F)(F)F)C[C@H](C)N1C [Example 313, tert-butyl 4-[2-fluoro-5-[[-methyl-6-oxo-4-(trifluoromethyl)pyridine-3-carbonyl]amino]-4-[(3R,5S)-3,4,5-trimethylpiperazin-1-yl]phenyl]-3,6-dihydro-2H-pyridine-1-carboxylate] | 3.1 nM |
| C[C@@H]1CN(c2cc(F)c(-c3ccc(OCC4CC4)nc3)cc2NC(=O)c2c[nH]c(=O)cc2C(F)F)C[C@H](C)N1C [Example 314, N-[5-[6-(cyclopropylmethoxy)pyridin-3-yl]-4-fluoro-2-[(3R,5S)-3,4,5-trimethylpiperazin-1-yl]phenyl]-4-(difluoromethyl)-6-oxo-1H-pyridine-3-carboxamide] | 1.67 nM |
| CCn1cc(C(=O)Nc2cc(-c3cnc(N4CCOCC4)nc3)c(F)cc2N2C[C@@H](C)N(C)[C@@H](C)C2)c(C(F)(F)F)cc1=O [Example 315, 1-ethyl-N-[4-fluoro-5-(2-morpholin-4-ylpyrimidin-5-yl)-2-[(3R,5S)-3,4,5-trimethylpiperazin-1-yl]phenyl]-6-oxo-4-(trifluoromethyl)pyridine-3-carboxamide] | 8.49 nM |
| C[C@@H]1CN(c2cc(F)c(-c3cnc(N4CC(C)(C)OC(C)(C)C4)nc3)cc2NC(=O)c2c[nH]c(=O)cc2C(F)(F)F)C[C@H](C)N1C [Example 320, N-[4-fluoro-2-[(3R,5S)-3,4,5-trimethylpiperazin-1-yl]-5-[2-(2,2,6,6-tetramethylmorpholin-4-yl)pyrimidin-5-yl]phenyl]-6-oxo-4-(trifluoromethyl)-1H-pyridine-3-carboxamide] | 0.722 nM |
| C[C@@H]1CN(c2cc(F)c(-c3cnc(N4CCOCC4)nc3)cc2NC(=O)c2cc(C(F)(F)F)[nH]n2)C[C@H](C)N1C [Example 321, N-[4-fluoro-5-(2-morpholin-4-ylpyrimidin-5-yl)-2-[(3R,5S)-3,4,5-trimethylpiperazin-1-yl]phenyl]-5-(trifluoromethyl)-1H-pyrazole-3-carboxamide] | 63.1 nM |
| C[C@@H]1CN(c2cc(F)c(C3=CCCN(C(=O)OC(C)(C)C)C3)cc2NC(=O)c2c[nH]c(=O)cc2C(F)(F)F)C[C@H](C)N1C [Example 322, tert-butyl 5-[2-fluoro-5-[[6-oxo-4-(trifluoromethyl)-1H-pyridine-3-carbonyl]amino]-4-[(3R,5S)-3,4,5-trimethylpiperazin-1-yl]phenyl]-3,6-dihydro-2H-pyridine-1-carboxylate] | 1.36 nM |
| C[C@@H]1CN(c2cc(F)c(C3=CCN(C(=O)OC(C)(C)C)C3)cc2NC(=O)c2c[nH]c(=O)cc2C(F)(F)F)C[C@H](C)N1C [Example 323, tert-butyl 3-[2-fluoro-5-[[6-oxo-4-(trifluoromethyl)-1H-pyridine-3-carbonyl]amino]-4-[(3R,5S)-3,4,5-trimethylpiperazin-1-yl]phenyl]-2,5-dihydropyrrole-1-carboxylate] | 2.48 nM |
